From US20060223792A1, “Phenyl and pyridyl LTA4H modulators” (priority 2005, published 2006) come the findings set out here.

pIC50: −log10 of the molar value. Counter-ions that a name gives are not always drawn. Like-named read-outs stand apart in the source and are kept apart here.

The assay has as its target T1, recombinant human LTA4 hydrolase (rhLTA4H) (Homo sapiens, UniProt P09960).
T1 construct: made in house; host or cells: Spodoptera frugiperda (Sf-9) cells, baculovirus (pFastBac1)
T1 sequence (P09960 1-611): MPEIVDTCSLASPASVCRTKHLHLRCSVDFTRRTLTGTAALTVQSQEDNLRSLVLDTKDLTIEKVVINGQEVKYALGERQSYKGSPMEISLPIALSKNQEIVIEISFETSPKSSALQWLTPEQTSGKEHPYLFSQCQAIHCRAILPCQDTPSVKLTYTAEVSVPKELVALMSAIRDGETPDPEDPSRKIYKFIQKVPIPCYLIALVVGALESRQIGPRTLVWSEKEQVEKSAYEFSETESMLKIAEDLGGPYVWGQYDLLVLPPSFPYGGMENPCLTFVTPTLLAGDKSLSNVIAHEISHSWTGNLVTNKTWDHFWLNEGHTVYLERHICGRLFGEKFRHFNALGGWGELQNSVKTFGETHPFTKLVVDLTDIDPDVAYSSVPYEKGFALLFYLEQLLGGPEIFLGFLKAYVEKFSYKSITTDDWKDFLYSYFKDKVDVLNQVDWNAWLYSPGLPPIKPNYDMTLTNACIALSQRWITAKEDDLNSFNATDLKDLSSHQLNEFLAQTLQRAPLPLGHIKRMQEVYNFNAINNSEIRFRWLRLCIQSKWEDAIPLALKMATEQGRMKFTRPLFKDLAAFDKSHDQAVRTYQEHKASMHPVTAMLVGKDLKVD
As to the kind of experiment: Recombinant human LTA4 hydrolase assay for LTA4 hydrolase inhibitor activity. Type of assay: biochemical. Here is the method: Recombinant Human LTA4 Hydrolase Assay for LTA4 Hydrolase Inhibitor Activity
Compounds of the present invention were tested for LTA4 hydrolase inhibitor activity against recombinant human LTA4 hydrolase (rhLTA4H). Vectors were prepared and used to express rhLTA4H essentially as follows: LTA4 hydrolase encoding DNA was amplified by polymerase chain reaction (PCR) using a human placental cDNA library as a template. Oligonucleotide primers for the PCR reaction were based on the 5′-end, and the complement of the 3′-end, of the published nucleotide sequence for the coding region of the human LTA4 hydrolase gene (C. D. Funk et al., Proc. Natl. Acad. Sci. USA 1987, 84:6677-6681). The amplified […] DNA fragment encoding LTA4 hydrolase was isolated and cloned into the pFastBac1 vector (Invitrogen). Recombinant baculovirus was generated as described by the manufacturer, and used to infect Spodoptera frugiperda (Sf-9) cells. Recombinant LTA4 hydrolase enzyme was purified from the infected Sf-9 cells essentially as described by J. K. Gierse et al. (Protein Expr. Purif. 1993, 4(5):358-366). The purified enzyme solution was adjusted to contain 0.29 mg/mL LTA4 hydrolase, 50 mM Tris (pH 8.0),150 mM NaCl, 5 mM dithiothreitol, 50% glycerol, and EDTA-free Complete protease inhibitor cocktail (Roche). The specific activity of the enzyme was about 3.8 μmol/min/mg.
LTA4 substrate was prepared from the methyl ester of LTA4 (Cayman Chemical) by treatment with 67 equiv. of NaOH under nitrogen at rt for 40 min. The LTA4 substrate in its free acid form was kept frozen at −80° C. until needed. Each compound was diluted to different concentrations in assay buffer (0.1 M potassium phosphate (pH 7.4), 5 mg/mL fatty acid free BSA) containing 10% DMSO. A 25-μL aliquot of each compound dilution was incubated for 10 min at rt with an equal volume of assay buffer containing 36 ng of recombinant human LTA4H. The solution was then adjusted to 200 μL with assay buffer. LTA4 (free acid) was thawed and diluted in assay buffer to a concentration of 357 ng/mL, and 25 μL (9 ng) of LTA4 substrate was added to the reaction mixture (total volume=225 μL) at time zero. Each reaction was carried out at rt for 10 min. The reaction was stopped by diluting 10 μL of the reaction mixture with 200 μL of assay buffer. LTB4 was quantifiedin the diluted sample by a commercially available enzyme-linked immunoassay (Cayman Chemical Co.), as recommended by the manufacturer. Positive controls, under essentially identical conditions but without addition of an inhibitor compound, and negative controls, containing all assay components except enzyme, were routinely run in each experiment. IC50 values were determined by fitting the activity data at different compound concentrations to a 4-parameter equation using the Grafit program (Erithacus software).
The IC50 values presented in the table below should be expected to fall within the typical three-fold variability of assays of this type. The values presented here are, in general, an average of one to three determinations.

The mark [1] stands for this setting: recombinant human LTA4H, LTB4 quantified by enzyme-linked immunoassay, average of one to three determinations, read-out: IC50.

The term pIC50 denotes −log10 of the IC50, conventionally taken in molar units. On to `CCOC(=O)C1CCN(CCOc2ccc(OC(=O)N(C)c3cccc(O)c3)cc2)CC1` [Example 8, 1-(2-{4-[(3-Hydroxy-phenyl)-methyl-carbamoyloxy]-phenoxy}-ethyl)-piperidine-4-carboxylic acid ethyl ester], for which, under setting [1], the pIC50 is 7.00.
As for `CN(C(=O)Oc1ccc(OCCN2CCC(C(=O)O)CC2)cc1)c1cccc(O)c1` [Example 9, 1-(2-{4-[(3—hydroxy-phenyl)-methyl-carbamoyloxy]-phenoxy}-ethyl)-piperidine-4-carboxylic acid], the pIC50 under setting [1] is 6.41.
Regarding `CN(C)C(=O)Oc1ccc(OCCN2CCC(O)(c3ccccc3)CC2)cc1` [Example 10, Dimethyl-carbamic acid 4-[2-(4-hydroxy-4-phenyl-piperidin-1-yl)-ethoxy]-phenyl ester], the pIC50 under setting [1] was 7.28.
`O=C(Nc1ccc(OCCN2CCCCC2)cc1)Oc1ccccc1` [Example 14, [4-(2-Piperidin-1-yl-ethoxy)-phenyl]-carbamic acid phenyl ester hydrochloride]: the negative logarithm of the IC50 (pIC50) is 5.75.
As to `O=C(Nc1ccccc1)OCc1ccc(OCCN2CCCCC2)cc1` [Example 16, Phenyl-carbamic acid 4-(2-piperidin-1-yl-ethoxy)-benzyl ester], the negative-log IC50 (pIC50) under setting [1] is 6.45.
Same read-out and setting: with `O=C(Nc1ccccc1)Oc1ccc(CCN2CCC(O)(c3ccccc3)CC2)cc1` [Example 17, Phenyl-carbamic acid 4-[2-(4-hydroxy-4-phenyl-piperidin-1-yl)-ethyl]-phenyl ester] the figure was 7.48; with `CCOC(=O)C1CCCN(C2CCN(CCc3ccc(OCCc4ccccc4)cc3)CC2)C1` (stereo not drawn) [Example 18, 1′-[2-(4-Phenethyloxy-phenyl)-ethyl]-[1,4]′bipiperidinyl-3-carboxylic acid ethyl ester], 7.00; with `O=C(O)C1CCCN(C2CCN(CCc3ccc(OCCc4ccccc4)cc3)CC2)C1` (stereo not drawn) [Example 19, 1′-[2-(4-Phenethyloxy-phenyl)-ethyl]-[1,4′]bipiperidinyl-3-carboxylic acid], 6.65.
In the case of `O=C(Oc1ccccc1)Oc1ccc(OCCN2CCCCC2)cc1` [Example 20, Carbonic acid phenyl ester 4-(2-piperidin-1-yl-ethoxy)-phenyl ester], the pIC50 under setting [1] was 9.00.
With `O=C(Cc1ccccc1)Oc1ccc(OCCN2CCCCC2)cc1` [Example 21, Phenyl-acetic acid 4-(2-piperidin-1-yl-ethoxy)-phenyl ester], the pIC50 under setting [1] is 9.00.
Regarding `CC(C(=O)Oc1ccc(OCCN2CCCCC2)cc1)c1ccccc1` (stereo not drawn) [Example 22, 2-Phenyl-propionic acid 4-(2-piperidin-1-yl-ethoxy)-phenyl ester], the pIC50 under setting [1] was 7.68.
Regarding `O=C(Oc1ccc(OCCN2CCCCC2)cc1)c1cc2ccccc2[nH]1` [Example 23, 1H-Indole-2-carboxylic acid 4-(2-piperidin-1-yl-ethoxy)-phenyl ester], the pIC50 under setting [1] was 7.12.
The same measure, in the same setting: with `O=C(COc1ccc(CCN2CCC(N3CCCCC3=O)CC2)cc1)c1ccccc1` [Example 26, 1′-{2-[4-(2-Oxo-2-phenyl-ethoxy)-phenyl]-ethyl}-[1,4′]bipiperidinyl-2-one] the figure was 6.46; with `O=C1CCCCN1C1CCN(CCc2ccc(OCC(O)c3ccccc3)cc2)CC1` (stereo not drawn) [Example 27, 1′-{2-[4-(2-Hydroxy-2-phenyl-ethoxy)-phenyl]-ethyl}-[1,4′]bipiperidinyl-2-one], 8.40.
On the same count and under the same terms, with `Oc1cccc(CCOc2ccc(OCCN3CCCCC3)cc2)c1` [Example 28, 3-{2-[4-(2-Piperidin-1-yl-ethoxy)-phenoxy]-ethyl}-phenol] the figure was 7.66; with `N#CC1CCN(CCc2ccc(OCCc3ccccc3)cc2)CC1` [Example 29, 1-[2-(4-Phenethyloxy-phenyl)-ethyl]-piperidine-4-carbonitrile], 7.26.
On the same count and under the same terms, with `c1ccc(CCOc2ccc(CCN3CCC(c4c[nH]nn4)CC3)cc2)cc1` [Example 31, 1-[2-(4-Phenethyloxy-phenyl)-ethyl]-4-(1H-[1,2,3]triazol-4-yl)-piperidine] the figure was 7.48; with `c1ccc(CCOc2ccc(CCNC3CC3)cc2)cc1` [Example 32, Cyclopropyl-[2-(4-phenethyloxy-phenyl)-ethyl]-amine], 6.75; with `N#CCCCN(CCc1ccc(OCCc2ccccc2)cc1)C1CC1` [Example 33, 4-{Cyclopropyl-[2-(4-phenethyloxy-phenyl)-ethyl]-amino}-butyronitrile], 7.31.
For the molecule `O=C(Nc1ccccc1)Oc1ccc(CCCN2CCC(O)(c3ccccc3)CC2)cc1` [Example 36, Phenyl-carbamic acid 4-[3-(4-hydroxy-4-phenyl-piperidin-1-yl)-propyl]-phenyl ester], the pIC50 under setting [1] is 8.30.
`O=C(Nc1ccccc1)Oc1ccc(CCCN2CCCCC2)cc1` [Example 37, Phenyl-carbamic acid 4-(3-piperidin-1-yl-propyl)-phenyl ester]: the pIC50 under setting [1] is 7.82.
With `CCCN(CCCc1ccc(OC(=O)Nc2ccccc2)cc1)CC1CC1` [Example 38, Phenyl-carbamic acid 4-[3-(cyclopropylmethyl-propyl-amino)-propyl]-phenyl ester hydrochloride], the pIC50 was 8.22.
Consider `O=C(Nc1ccc(O)cc1)Oc1ccc(OCCN2CCC(O)(c3ccccc3)CC2)cc1` [Example 39, (4—hydroxy-phenyl)-carbamic acid 4-[2-(4-hydroxy-4-phenyl-piperidin-1-yl)-ethoxy]-phenyl ester], for which the pIC50 under setting [1] was 9.40.
Same read-out and setting: with `CCCC1CCN(CCOc2ccc(OC(=O)Nc3ccccc3)cc2)CC1` [Example 41, Phenyl-carbamic acid 4-[2-(4-propyl-piperidin-1-yl)-ethoxy]-phenyl ester] the figure was 9.00.
Same read-out and setting: with `O=C(Nc1ccccc1)Oc1ccc(OCCCN2CCC(O)(c3ccccc3)CC2)cc1` [Example 42, Phenyl-carbamic acid 4-[3-(4-hydroxy-4-phenyl-piperidin-1-yl)-propoxy]-phenyl ester] the figure was 9.00; with `O=C(Nc1ccccc1F)Oc1ccc(OCCN2CCCCC2)cc1` [Example 43, (2-Fluoro-phenyl)-carbamic acid 4-(2-piperidin-1-yl-ethoxy)-phenyl ester], 8.15; with `O=C(Cc1ccc(OCCN2CCCCC2)cc1)Nc1ccccc1O` [Example 44, N-(2—hydroxy-phenyl)-2-[4-(2-piperidin-1-yl-ethoxy)-phenyl]-acetamide], 7.19.
Still for that read-out and setting: with `O=C(Nc1cccc(Cl)c1)Oc1ccc(OCCN2CCCCC2)cc1` [Example 45, (3-Chloro-phenyl)-carbamic acid 4-(2-piperidin-1-yl-ethoxy)-phenyl ester] the figure was 7.19.
`CCN(CC)CCOc1ccc(OC(=O)Nc2ccccc2)cc1` [Example 46, Phenyl-carbamic acid 4-(2-diethylamino-ethoxy)-phenyl ester]: under setting [1], the pIC50 is 8.15.
On the same count and under the same terms, with `CCCN(CCOc1ccc(OC(=O)Nc2ccccc2)cc1)CC1CC1` [Example 49, Phenyl-carbamic acid 4-[2-(cyclopropylmethyl-propyl-amino)-ethoxy]-phenyl ester] the figure was 8.40.
